Measured values: BindingDB's records for doi:10.1016/j.ejmech.2018.12.027 (National Taiwan University, 2019)

assay: Inhibition of influenza A virus (A/WSN/1933(H1N1)) neuraminidase using MUNANA as fluorogenic substrate preincubated for 10 mins followed by substrate addition and measured after 15 mins by fluorometric assay

| Structure (SMILES) | IC50 [nM] |
| --- | --- |
| CCC(CC)O[C@@H]1C=C([B-](F)(F)F)C[C@H](NC(=N)N)[C@H]1NC(C)=O | 20 |
| CCCCOS(=O)(=O)C1=C[C@@H](OC(CC)CC)[C@H](NC(C)=O)[C@@H](NC(=N)N)C1 | 3.3 |
| CCC(CC)O[C@@H]1C=C(S(=O)(=O)CCc2ccncc2)C[C@H](NC(=N)N)[C@H]1NC(C)=O | 9.8 |
| CCC(CC)O[C@@H]1C=C([B-](F)(F)F)C[C@H](N)[C@H]1NC(C)=O | 3400 |
| CCCCOS(=O)(=O)C1=C[C@@H](OC(CC)CC)[C@H](NC(C)=O)[C@@H](N)C1 | 27 |
| CCC(CC)O[C@@H]1C=C(S(=O)(=O)O)C[C@H](NC(=N)N)[C@H]1NC(C)=O | 1.3 |
| CCC(CC)O[C@@H]1C=C(S(=O)(=O)O)C[C@H](N)[C@H]1NC(C)=O | 1.8 |
| CCC(CC)O[C@@H]1C=C(S(C)(=O)=O)C[C@H](N)[C@H]1NC(C)=O | 180 |
| CCC(CC)O[C@@H]1C=C(B(O)O)C[C@H](NC(=N)N)[C@H]1NC(C)=O | 28 |
| CCC(CC)O[C@@H]1C=C(S(=O)(=O)CCc2ccncc2)C[C@H](N)[C@H]1NC(C)=O | 330 |
